Results published in publication PMC9945734 (BMC Medicine, 2023).

Columns and labels:
KLF5^K369Q protein = target: T1, KLF5^K369Q protein (Homo sapiens, UniProt Q13887, K369Q); test: Fluorescence titration (quenching) of KLF5 protein; details: read-out: binding constant Kd
T1 construct: made in house; host or cells: E. coli BL21 DE3
Protocol: (§1) Wild-type or mutant KLF5 protein at 1 μM in 2 mL PBS was measured for fluorescence spectrum using a fluorescence spectrometer (HORIBA, Kyoto, Japan), and the fluorescence spectra were obtained for wavelengths of 300–500 nm. NTZ with various concentration ranges and various increments were used in the analysis, including 0.1–1 μM with an increment of 0.1 μM, 1–5 μM with an increment of 0.5 μM, 5–10 μM with an increment of 1 μM, and 10–30 μM with an increment of 5 μM. The incubation with NTZ was for 5 s at room temperature. Data were processed and fitted to obtain the binding affinities using the Origin software (OriginLab, Northampton, MA, USA), and Kd values were determined by the responses at […] wavelength.

KLF5^K369R protein = target: T2, KLF5^K369R protein (Homo sapiens, UniProt Q13887, K369R); test: Fluorescence titration (quenching) of KLF5 protein; details: read-out: binding constant Kd
T2 construct: made in house; host or cells: E. coli BL21 DE3
Protocol: as §1

DU 145-KQ cells = test: Clone formation assay; type: cell-based, human; details: 0-20 μM, 8 days
Protocol: (§2) PC-3-KQ and DU 145-KQ cells were seeded onto 6-well plates at 1 × 10^3 cells/well. After incubation for 24 h, PC-3-KQ cells were treated with NTZ at 0, 1.25, 2.5, and 5 μM, while DU 145-KQ cells were treated with NTZ at 0, 5, 10, and 20 μM for 8 days. The drug-containing medium was replaced every 2 days. On the 8th day, cells were rinsed with cold PBS, fixed with 4% paraformaldehyde for 10 min, stained with purple crystal for 10 min, and photographed, and the images were analyzed using the Image J software.

PC-3-KQ cells = test: Clone formation assay; type: cell-based, human; details: 0-5 μM, 8 days
Protocol: as §2

PC-3-KQ-Luc cells = test: Bone metastasis assay, prevention mode; type: in vivo, Balb/c nude mice; details: 100 mg/kg intragastric every day
From the text: (§3) Male Balb/c nude mice at 3-4 weeks old were purchased from Charles River (Beijing, China). Upon arrival at the Animal Center of the Southern University of Science and Technology (SUSTech), mice were quarantined for one week before use. All mice were maintained and handled following the National Institutes of Health guide for the Care and Use of Laboratory Animals. To measure if NTZ inhibits Ac-KLF5-induced bone metastasis, we used both prevention and therapy modes. […] Then the mice were randomly divided into vehicle and NTZ groups (six mice in each group) and received treatment at day 0. The tumor growth and body weight were determined every week. After 5 weeks of treatment, all mice were sacrificed and bone tissues and major organs were resected for hematoxylin and eosin (H&E) staining. The selection of 5 weeks for investigation is based on the pilot experiment, in which clear bone metastases formed at 5 weeks after injection but no tumors were detected in other organs, including the brain, liver, lung, spleen, heart, prostate, seminal vesicle, small intestine, and testes (data not shown). Tumor growth in the bone was determined once a week by in vivo BL imaging using the Living Image Software 4.4 (IVIS Spectrum, PerkinElmer Health Sciences, Massachusetts, USA). Ten minutes after intraperitoneal injection of D-luciferin sodium salt (15 mg/mL, 10 μL/g BW) (GM-040611, Genomeditech, Shanghai, China), bioluminescence images were acquired with the following conditions: open emission filter, exposure time = 60 s, binning = medium: 8, field of view = 12.9 ×12.9 cm, and f/stop = 1. Images were then analyzed using the Living Image 4.4 software (PerkinElmer). At the end of treatment, bioluminescence intensities were measured by photon flux of the region of interest (ROI) and compared between the vehicle and NTZ treatment groups. […] CC0113, […] Biotechnology, Beijing, China) was used as vehicle control, and NTZ was solved in CMC. NTZ was delivered into mice via intragastric administration (100 mg/kg BW) every day. Femurs were decalcified in ethylenediaminetetraacetic (EDTA) decalcification solution (Cat #: R20403-5L, OKA, Beijing, China) for 14-21 days. After decalcification, bone tissues were dehydrated in gradient ethanol from 70 to 95%, soaked in n-butanol for 6 h, and then embedded in paraffin. Tissue blocks were cut into 4 μm sections. After baking in an oven at 63°C for 1.5 h, tissue slides were deparaffinized with xylene, hydrated with gradient ethanol, and then stained with H&E (Cat #: BA4025, BaSO, Zhuhai, China). Slides were then mounted for analysis with neutral resins (Cat #: 25608-33-7, Sigma-Aldrich, MO, USA).

PC-3-KR-Luc cells = test: Bone metastasis assay, prevention mode; type: in vivo, Balb/c nude mice; details: 100 mg/kg intragastric every day
From the text: as §3

MYBL2 = MYBL2 expression by qRT-PCR and western blotting; type: cell-based, human; details: PC-3 and DU 145 cells expressing KLF5^K369Q; dose- or time-dependent
Protocol: Total RNA was extracted from cells using the Eastep Super total RNA extraction kit (Cat #: LS1040, Promega, Shanghai, China) and quantified using the NanoDrop One (Thermo Fisher Scientific, Madison, USA). Single-strand cDNA was synthesized from 1 μg of total RNA using the HiScript III All-in-one RT SuperMix kit (Cat #: R333-01, Vazyme, Nanjing, China). For qRT-PCR, the cDNA template was mixed with the SYBR Green reagent in enzyme-free water, and the Qtower3 touch system (Analytik Jena, Jena, Germany) was used for PCR with the following program: initial denaturation at 95°C for 5 min, 40 cycles of 95°C for 30 s, 60°C for 30 s, and 72 °C for 30 s, and a final melting for 15 s. GAPDH was used as an internal control. […].
Cells in 6-well plates were washed with cold PBS and collected in a lysis buffer containing phosphatase and protease inhibitors (Cat #: P1045, Beyotime) to extract proteins. After centrifugation for 10 min at 4°C in a refrigerated centrifuge, the supernatant was collected and mixed with the 4× loading buffer, boiled in a metal heat bath at 100°C for 10 min, and then subjected to 10% SDS-PAGE. Proteins were transferred onto an activated PVDF membrane (0.45 μm pore-size, Cat #: IPVH00010, Millipore, Carrigtwohill, Ireland). […]

T2 sequence (Q13887 whole entry K369R): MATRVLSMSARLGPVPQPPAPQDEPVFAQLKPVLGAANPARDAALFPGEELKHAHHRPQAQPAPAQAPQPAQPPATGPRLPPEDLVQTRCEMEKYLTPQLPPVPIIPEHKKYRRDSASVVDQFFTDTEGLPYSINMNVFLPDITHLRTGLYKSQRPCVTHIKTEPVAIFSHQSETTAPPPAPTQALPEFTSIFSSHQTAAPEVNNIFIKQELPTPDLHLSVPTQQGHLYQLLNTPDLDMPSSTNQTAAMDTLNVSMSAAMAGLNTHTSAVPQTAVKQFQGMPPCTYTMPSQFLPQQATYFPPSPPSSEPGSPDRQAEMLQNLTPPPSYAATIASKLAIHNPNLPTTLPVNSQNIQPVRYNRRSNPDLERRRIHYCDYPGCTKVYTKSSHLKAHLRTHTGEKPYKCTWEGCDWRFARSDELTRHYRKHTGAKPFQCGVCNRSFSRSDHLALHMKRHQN
T1 sequence (Q13887 whole entry K369Q): as the sequence (Q13887 whole entry K369R) above, with R369Q counted along it

CC(=O)Oc1ccccc1C(=O)Nc1ncc([N+](=O)[O-])s1 [Nitazoxanide]
Kd (KLF5^K369Q protein): 5.4 µM | Kd (KLF5^K369R protein): 7.3 µM | colony number (DU 145-KQ cells): reduced colony number | colony number (PC-3-KQ cells): reduced colony number | tumor cell area in bone sections (H&E) (PC-3-KQ-Luc cells): significantly decreased tumor cell area | bone metastasis, bioluminescence signals (PC-3-KQ-Luc cells; day 35): dramatically reduced bone metastasis | tumor cell area in bone sections (H&E) (PC-3-KR-Luc cells): not significantly affected | bioluminescence intensity (PC-3-KR-Luc cells; day 35): did not have a significant effect | expression of MYBL2 (mRNA and protein) (MYBL2): reduced the expression of MYBL2
